Results on three compounds are retold here after patent publication US6455530B1, “2R,4S,S,S- and 2S,4R,S,S-hydroxyitraconazole” (Sepracor Inc., priority 1996, dated 2002).

The conditions of data set [1]: oral, daily administration; cited from earlier work.
For the next data set, the system named is Cryptococcus neoformens. Description: Kirby-Bauer testing (paper disk zones of inhibition). Type of data set: cell-based. The settings on record: 10 μl of 10 mg/mL solution on 7 mm paper disk, Sabouraud Dextrose agar, 30° C. for 16 hours. Here is the method:
(§1) Actively growing cultures of Candida albicans, Cryptococcus neoformens and Saccharomnyces cerevisiae were prepared as described above. The cultures were diluted to a 0.5 McFarland standard and swabbed onto a 150 mm Sabouraud Dextrose agar plates. Paper disks (7 mm) were placed onto the agar plates using a disk dispenser. Next 10 μl of 10 mg/mL solutions of each sample hydroxy-itraconazole was pipetted onto separate paper disks. The plates were then incubated at 30° C. for 16 hours. Zones of inhibition were then measured in mm. Data Represent Zones of Inhibition in mm.

The next data set deals with Saccharomyces cerevisae. Described as above. Type of data set: cell-based. The note with it: 10 μl of 10 mg/mL solution on 7 mm paper disk, Sabouraud Dextrose agar, 30° C. for 16 hours. Here is the method: as §1
Another data set has as its system Candida albicans. The data set is described as above. Type of data set: cell-based. The settings on record: 10 μl of 10 mg/mL solution on 7 mm paper disk, Sabouraud Dextrose agar, 30° C. for 16 hours. Here is the method: as §1

Turning to `CCC(C)n1ncn(-c2ccc(N3CCN(c4ccc(OCC5COC(Cn6cncn6)(c6ccc(Cl)cc6Cl)O5)cc4)CC3)cc2)c1=O` (racemic) [± Itraconazole, 4-[4-[4-[4-[[2-(2,4-dichlorophenyl)-2-(1H-1,2,4-triazol-1-ylmethyl)-1,3-dioxolan-4-yl]methoxy]phenyl]-1-piperazinyl]phenyl]-2,4dihydro-2-(1-methylpropyl)-3H-1,2,4triazol-3-one, reference compound], the “Time at which peak plasma levels are attained” value in data set [1] was 15 days. The zone of inhibition (usually the size of the clear area around the sample on an inoculated plate) at 10000 µg/mL in the data set with Cryptococcus neoformens (Cryptococcus) is 22 mm; with Saccharomyces cerevisae (Saccharomyces), 15 mm; with Candida albicans (Candida albicans), 17 mm.
As for `C[C@H]([C@@H](C)O)n1ncn(-c2ccc(N3CCN(c4ccc(OC[C@H]5CO[C@](Cn6cncn6)(c6ccc(Cl)cc6Cl)O5)cc4)CC3)cc2)c1=O` (single isomer, unassigned) [A diastereomer, (2R,4S)-4-[4-[4-[4-[[2-(2,4-Dichlorophenyl)-2-(1H-1,2,4-triazole-1-ylmethyl)-1,3-dioxolan-4-yl]methoxy]phenyl]-[-piperazinyl[phenyl]-2,4dihydro-2-[(1R*,2R*)-(2-hydroxy-1-methylpropyl)]-3H -1,2,4-triazol-3-one], the “Zones of Inhibition, Cryptococcus neoformens” value with Cryptococcus neoformens is reported as 34 mm. The “Zones of Inhibition, Saccharomyces cerevisae” value in the data set with Saccharomyces cerevisae worked out at 23 mm. The “Zones of Inhibition, Candida albicans” value in the data set on Candida albicans is recorded as 23 mm.
As to `C[C@H]([C@@H](C)O)n1ncn(-c2ccc(N3CCN(c4ccc(OC[C@@H]5CO[C@@](Cn6cncn6)(c6ccc(Cl)cc6Cl)O5)cc4)CC3)cc2)c1=O` (single isomer, unassigned) [B diastereomer, (2S,4R)-4-[4-[4-[4-[[2-(2,4-Dichlorophenyl)-2-(1H-1,2,4,-triazole-1-ylmethyl)-1,3-dioxolan-4-yl}methoxy]phenyl]-1-piperazinyl]phenyl]-2,4-dihydro-2-[(1R*,2R*)-(2-hydroxy-1-methylpropyl)-3H-1,2,4-triazol-3-one], the “Zones of Inhibition, Cryptococcus neoformens” value in the data set on Cryptococcus neoformens is on record as 32 mm. The “Zones of Inhibition, Saccharomyces cerevisae” value in the data set on Saccharomyces cerevisae is on record as 25 mm. Further, the “Zones of Inhibition, Candida albicans” value in the data set on Candida albicans is 27 mm.
